Experimental data: article PMC6804080, “Benzoxaboroles—Novel Autotaxin Inhibitors” (Molecules, 2019)
In brackets after ≈: the same amount, converted by molar mass.

What was measured:
Autotaxin (ATX) = target: T1, Autotaxin (ATX) (Homo sapiens, UniProt Q13822); assay: biochemical choline detection assay for ATX inhibition, LysoPC substrate; details: for IC50: mean standard deviation from duplicate experiments
T1 construct: we added 10 μL of recombinant ATX (2 ng/mL) in a Tris–HCl buffer
Procedure: All 21 new benzoxaboroles derivatives prepared herein were evaluated for ATX inhibition in vitro using a biochemical choline detection assay, combining elements of assays already described in the literature.
[…] Mother plates with serial dilutions of compounds in pure DMSO were prepared from 10 mM DMSO stock solutions. Storplate-384-deep-well-V plates (Perkin Elmer) were also used for mother plate preparation. Compounds were diluted in a DMSO in a ratio of 1:3. An aliquot of 200 nL of compound solution was transferred from the mother plate to the test plate with a Mosquito nanoliter liquid handling system (TTP labtech). The assay was performed in Spectra-Plate-384 TC, transparent, (Perkin Elmer, Cat#6007658) using a 20 µL assay volume. The total final percentage of DMSO in the test media was 1%. Compounds were tested at 11 consecutive three-fold dilutions starting from 50 µM (final concentrations) in duplicate, covering range of 0.0008–50 μM to determine IC50 values. […] After dispensing of compounds directly to the dry plate, we added 10 μL of recombinant ATX (2 ng/mL) in a Tris–HCl buffer (140 mM NaCl, 1mM MgCl2, 5 mM KCl, 3 mM CaCl2, 1 mg/ml bovin serum albumin (BSA, fatty acid free) and 100 mM Tris–HCl, pH 9). […] The above-described solution with dimethyl sulfoxide but without the test compound was used as a control. LysoPC without ATX was used as a control for the autohydrolysis of LysoPC. After 1.5 h of incubation, 20 μL of stop solution and developer was added {Choline oxidase (1.2 U/mL), Peroxidase (1.2 U/mL), TOOS (2.7 mM), 4-Aminoantipyrine (2.7 mM), and EDTA (50 mM)} to the reaction mixture, and absorbance was measured after 30 min of incubation. The absorbance was measured by using Perkin-Elmer EnVision plate reader (λ = 555 nm). Data were analyzed using GraphPad Prism software. The calculation of IC50 data, curves and quality control (QC) analysis was made by using Excel tools and GraphPadPrism software. Briefly, individual concentration–effect curves were generated by plotting the logarithm of the tested concentration of tested compounds (X) vs. corresponding percentage inhibition values (Y) using a least squares (ordinary) fit. […] QC criteria parameters (Z,’ S:B, ΔmP) were checked for every plate.

[1] = Chrom logD determination by gradient HPLC (CHI); assay type: physicochemical; details: pH 7.4, Luna C18 column; for chromatographic logD: reversed-phase HPLC, Phenomenex Luna C18 column
Procedure: clogP values were calculated for all compounds using the Percepta software. Chrom logD was determined experimentally using a procedure described in the supplementary data. Furthermore, the correlation between calculated clogP values and experimentally determined Chrom log D values were explored for molecules containing boron functional groups such as boronic acids and benzoxaboroles.
Chrom logD values were determined from the following equation: Chrom logD = 0.0857 × CHI − 2 [39]. Chromatographic hydrophobic index (CHI) values were determined from the gradient retention times (RT). These values approximately corresponded to the volume percentage of organic component in the mobile phase when the compound elutes. CHI values were determined at pH 7.4. Chromatograms were obtained using on Agilent 1100 Series liquid chromatography system with an HPLC diode-array detector (DAD) coupled with a Micromass Quattro micro atmosphere pressure ionization (API) mass spectrometer. The column used for analyses was Phenomenex Luna C18 (50 × 3 mm, 5 µm, 100 Å). The column was maintained at 25 °C. The flow rate was 1.0 mL/min. The mobile phase was composed of 50 mM ammonium acetate in water at pH 7.4 (solvent A) and acetonitrile (solvent B). The solvent gradient condition was initially 0.5% B, and then it increased linearly to 100% B over 3.0 min, remaining at 100% B for 0.5 min, then decreasing linearly to 0% B over 0.2 min followed by an equilibration period of 1.3 min prior to the next injection. The total experimental duration was 5 min. Injection volume was 2.0 µl. Samples temperature was maintained at 15 °C in the autosampler chamber. A group of ten standard compounds having different CHI values was used for calibration of RP-HPLC [40].

[2] = metabolic stability in rat liver microsomes; assay type: in vitro ADME
Procedure: (§1) Metabolic stability was assessed in rat and human liver microsomes, with testosterone and propranolol as positive controls. All compounds, at a final concentration of 1 μM (0.03% DMSO), were incubated in a phosphate buffer (50 mM, pH 7.4) for 60 min at 37 °C, together with liver microsomes in the absence and presence of NADPH generating system (nicotinamide adenine dinucleotide phosphate (NADP, 2 mM), glucose-6-phosphate (20 mM), glucose-6-phosphate dehydrogenase (6U) and magnesium chloride (2 mM)). Aliquots were taken at different time points (0, 10, 20, 30, 45 and 60 min), followed by reaction termination by addition of CH3CN:CH3OH 2:1 v/v, containing diclofenac as internal standard (IS). Samples were then centrifuged (at 2000 rpm at 4 °C for 30 min), and resulting supernatants were subjected to LC/MS/MS analysis. The in vitro half-life was calculated in GraphPadPrism software from % remaining vs. time regression using non-linear regression fit. In vitro intrinsic clearance, expressed as mL/min/g liver, was determined from in vitro half-life and normalized for the protein concentration in the incubation mixture, assuming a 52.5 mg/g liver.

[3] = kinetic solubility, turbidimetric method; assay type: physicochemical; details: 37 °C, pH 7.4, aqueous buffer, kinetic from dmso stock, Solubility (kinetic solubility range)
Procedure: Turbidimetric solubility allows for a rapid determination of kinetic solubility by using small amounts of the test compound. Assay controls were α-naphtoflavone (low solubility) and sulfaphenazole (expected solubility >100µM). DMSO stock solutions (10 mM) of each compound were first serially diluted 1 in 3 in DMSO and then spiked into an aqueous buffer (100 mM PBS), resulting in 5 following final concentration: 100, 30, 10, 3 and 1 µM (each concentration was tested in duplicate). […] Compound samples were compared to a solvent control in an aqueous buffer (DMSO 1% final concentration), and a significant increase of sample absorbance was considered to have occurred when the absorbance reached a 3-fold standard deviation of the average DMSO absorbance. The calculation of solubility range data was made by Excel tool software. Results are expressed as an estimated solubility range.

[4] = metabolic stability in human liver microsomes; assay type: in vitro ADME
Procedure: as §1

[5] = in vitro plasma stability, human plasma; assay type: in vitro ADME; details: after 4 h
Procedure: (§2) The in vitro plasma stability of the test compounds was studied in human and rat plasma with propranolol, benflorex, and eucatropine as control substances. All compounds at final concentrations of 5 μM (0.5% DMSO) were incubated in a phosphate buffer (50 mM, pH 7.4) for 4 h at 37 °C together with plasma. Aliquots were taken at different time points (0, 30, 120 min and 4 h), followed by reaction termination by the addition of CH3CN:CH3OH 2:1 v/v., which contained diclofenac and warfarin as internal standards (IS). Samples were then centrifuged (at 1600 rpm at 4 °C for 30 min), and the resulting supernatants were subjected to LC/MS/MS analysis. Results are expressed as % remaining.

[6] = in vitro plasma stability, rat plasma; assay type: in vitro ADME; details: after 4 h
Procedure: as §2

[7] = choline release assay using as a substrate
[8] = choline release assay using LPC C16:0 as a substrate

| Structure (SMILES) | IC50 (Autotaxin (ATX); [7]) | chromatographic logD [1] | other results |
| --- | --- | --- | --- |
| O=C(OCc1ccccc1)N1CCN(C2CCN(C(=O)c3ccc4c(c3)COB4O)C2)CC1 (centres unmarked) [Compound 40, benzyl 4-[1-(1-hydroxy-3H-2,1-benzoxaborole-5-carbonyl)pyrrolidin-3-yl]piperazine-1-carboxylate] | > 50 µM | 2.9 | – |
| COc1cc(COC(=O)N2CCN(C3CN(C(=O)c4ccc5c(c4)COB5O)C3)CC2)cc(OC)c1 [Compound 50] | – | – | IC50 (Autotaxin (ATX); [8]): 13 ± 3.26 µM; Chrom logD [1]: 3.07 |
| O=C(OCc1cc(Cl)cc(Cl)c1)N1CCN(C2CCN(C(=O)c3cccc4c3COB4O)C2)CC1 (centres unmarked) [Compound 33] | – | – | IC50 (Autotaxin (ATX); [8]): 8 ± 2.58 µM; Chrom logD [1]: 5.40 |
| O=C(OCc1ccccc1)N1CCN(C2CCN(C(=O)c3ccc4c(c3)B(O)OC4)C2)CC1 (centres unmarked) [Compound 39, benzyl 4-[1-(1-hydroxy-3H-2,1-benzoxaborole-6-carbonyl)pyrrolidin-3-yl]piperazine-1-carboxylate] | > 50 µM | 3.05 | – |
| O=C(OCc1ccccc1)N1CCN(C2CN(C(=O)c3ccc4c(c3)COB4O)C2)CC1 [Compound 42, benzyl 4-[1-(1-hydroxy-3H-2,1-benzoxaborole-5-carbonyl)azetidin-3-yl]piperazine-1-carboxylate] | > 50 µM | 2.9 | – |
| O=C(OCc1ccccc1)N1CCN(C2CN(C(=O)c3ccc4c(c3)B(O)OC4)C2)CC1 [Compound 41, benzyl 4-[1-(1-hydroxy-3H-2,1-benzoxaborole-6-carbonyl)azetidin-3-yl]piperazine-1-carboxylate] | 23 ± 1.18 µM | 3.07 | – |

The next lines start with results.

| IC50 (Autotaxin (ATX); [7]) | chromatographic logD [1] | Structure (SMILES) | other results |
| --- | --- | --- | --- |
| 4.7 ± 1.14 µM | 3.99 | Cc1cc(C)cc(COC(=O)N2CCN(C3CCN(C(=O)c4ccc5c(c4)COB5O)C3)CC2)c1 (centres unmarked) [Compound 44, (3,5-dimethylphenyl)methyl 4-[1-(1-hydroxy-3H-2,1-benzoxaborole-5-carbonyl)pyrrolidin-3-yl]piperazine-1-carboxylate] | – |
| 2 ± 1.73 µM | 4.46 | O=C(OCc1cc(Cl)cc(Cl)c1)N1CCN(C2CN(C(=O)c3ccc4c(c3)COB4O)C2)CC1 [Compound 38, (3,5-dichlorophenyl)methyl 4-[1-(1-hydroxy-3H-2,1-benzoxaborole-5-carbonyl)azetidin-3-yl]piperazine-1-carboxylate] | LMS: predicted in vivo hepatic clearance, rat [2]: 82 %LBF; solubility kinetic at 1 h [3]: 30 to 100 µM (≈ 15.1 to 50.4 µg/mL); LMS: predicted in vivo hepatic clearance, human [4]: 79 %LBF; PS (plasma stability), human [5]: 79.1 %remaining; PS (plasma stability), rat [6]: 60.1 %remaining |
| 5.1 ± 2.75 µM | 4.01 | Cc1cc(C)cc(COC(=O)N2CCN(C3CN(C(=O)c4ccc5c(c4)COB5O)C3)CC2)c1 [Compound 46, (3,5-dimethylphenyl)methyl 4-[1-(1-hydroxy-3H-2,1-benzoxaborole-5-carbonyl)azetidin-3-yl]piperazine-1-carboxylate] | – |
| 15 ± 6.07 µM | 3.03 | COc1cc(COC(=O)N2CCN(C3CCN(C(=O)c4ccc5c(c4)COB5O)C3)CC2)cc(OC)c1 (centres unmarked) [Compound 48, (3,5-dimethoxyphenyl)methyl 4-[1-(1-hydroxy-3H-2,1-benzoxaborole-5-carbonyl)pyrrolidin-3-yl]piperazine-1-carboxylate] | – |
| 11 ± 4.59 µM | 3.21 | COc1cc(COC(=O)N2CCN(C3CN(C(=O)c4ccc5c(c4)B(O)OC5)C3)CC2)cc(OC)c1 [Compound 49, (3,5-dimethoxyphenyl)methyl 4-[1-(1-hydroxy-3H-2,1-benzoxaborole-6-carbonyl)azetidin-3-yl]piperazine-1-carboxylate] | – |
| 14 ± 5.5 µM | 3.19 | COc1cc(COC(=O)N2CCN(C3CCN(C(=O)c4ccc5c(c4)B(O)OC5)C3)CC2)cc(OC)c1 (centres unmarked) [Compound 47, (3,5-dimethoxyphenyl)methyl 4-[1-(1-hydroxy-3H-2,1-benzoxaborole-6-carbonyl)pyrrolidin-3-yl]piperazine-1-carboxylate] | – |
| 0.37 ± 0.35 µM | 4.38 | O=C(OCc1cc(Cl)cc(Cl)c1)N1CCN(C2CCN(C(=O)c3ccc4c(c3)COB4O)C2)CC1 (centres unmarked) [Compound 32, (3,5-dichlorophenyl)methyl 4-[1-(1-hydroxy-3H-2,1-benzoxaborole-5-carbonyl)pyrrolidin-3-yl]piperazine-1-carboxylate] | ATX inhibition, range of activity (Autotaxin (ATX); in words): nanomolar range |
